Experimental data from the CheMixHub drug solubility set.

Experiment: xn = mol fraction of the nth substance listed, in the solute-free solvent

CCCCN1CCCCC1C(=O)Nc1c(C)cccc1C.Cl.O (configuration not stated) + CO + O
solubility (g/100 g solution)
Details | 293.15 K | 298.15 K | 303.15 K | 308.15 K | 313.15 K | 318.15 K | 323.15 K | 328.15 K | 333.15 K
x2 = 0.1 | 2.92 | 3.74 | 5.36 | 6.77 | 8.14 | 9.76 | 11.3 | 13.1 | 14.9
x2 = 0.2 | 3.04 | 4.11 | 5.31 | 7.06 | 9.3 | 11.4 | 14.1 | 15.8 | 19.5
x2 = 0.3 | 3.57 | 4.29 | 5.13 | 7.32 | 10.9 | 14.7 | 19.7 | 25.1 | 30.3
x2 = 0.4 | 3.64 | 4.18 | 5.89 | 7.92 | 11.9 | 17.4 | 22.3 | 28 | 33.2
x2 = 0.5 | 4.08 | 4.96 | 6.91 | 9.37 | 13.3 | 18.7 | 23.4 | 28.9 | 35.2
x2 = 0.6 | 5.88 | 6.91 | 8.26 | 10.9 | 14.8 | 19.1 | 23.4 | 29.8 | 35.8
x2 = 0.7 | 7.34 | 8.09 | 9.74 | 12.7 | 16.6 | 19.9 | 23.5 | 30.3 | 36.2
x2 = 0.8 | 8.13 | 9.32 | 12 | 14.3 | 17.3 | 20.6 | 24.5 | 30.2 | –
x2 = 0.9 | 8.65 | 10.1 | 13 | 16 | 18.9 | 21.6 | 25.4 | 30.3 | –

O=C(CC(=O)c1ccccc1)c1ccccc1 + CO + O
solubility (g/100 g solution)
Details | 278.15 K | 283.15 K | 288.15 K | 293.15 K | 298.15 K | 303.15 K | 308.15 K | 313.15 K | 318.15 K
x2 = 0.2 | 0.0215 | 0.0248 | 0.0305 | 0.0358 | 0.0488 | 0.0621 | 0.0667 | 0.0775 | 0.0881
x2 = 0.4 | 0.0257 | 0.0323 | 0.039 | 0.0541 | 0.0826 | 0.13 | 0.162 | 0.236 | 0.322
x2 = 0.6 | 0.165 | 0.351 | 0.562 | 0.643 | 0.783 | 0.822 | 0.987 | 1.02 | 1.05
x2 = 0.8 | 0.491 | 0.788 | 1.01 | 1.11 | 1.35 | 1.7 | 1.98 | 2.52 | 2.72

O=[N+]([O-])c1cc[nH]n1 + CO + O
solubility (g/100 g solution)
Details | 283.15 K | 288.15 K | 293.15 K | 298.15 K | 303.15 K | 308.15 K | 313.15 K | 318.15 K | 323.15 K
x2 = 0.05881 | 0.466 | 0.609 | 0.793 | 1.01 | 1.33 | 1.69 | 2.27 | 2.94 | 3.85
x2 = 0.1233 | 0.564 | 0.712 | 0.875 | 1.08 | 1.38 | 1.73 | 2.29 | 2.92 | 3.79
x2 = 0.1942 | 0.925 | 1.17 | 1.41 | 1.73 | 2.13 | 2.68 | 3.46 | 4.36 | 5.66
x2 = 0.2727 | 1.15 | 1.42 | 1.77 | 2.15 | 2.73 | 3.42 | 4.48 | 5.7 | 7.33
x2 = 0.3599 | 1.39 | 1.69 | 2.12 | 2.57 | 3.22 | 4.01 | 5 | 6.42 | 8.34
x2 = 0.4576 | 1.45 | 1.83 | 2.28 | 2.77 | 3.46 | 4.3 | 5.39 | 6.94 | 8.92
x2 = 0.5675 | 1.51 | 1.85 | 2.27 | 2.8 | 3.45 | 4.33 | 5.46 | 6.85 | 8.68
x2 = 0.6923 | 1.5 | 1.84 | 2.25 | 2.74 | 3.41 | 4.19 | 5.28 | 6.7 | 8.39
x2 = 0.835 | 1.44 | 1.82 | 2.25 | 2.79 | 3.66 | 4.99 | 6.1 | 7.64 | 9.23

O=c1[nH]cc(F)c(=O)[nH]1 + O + C1CCOC1
solubility (g/100 g solution)
Details | 283.15 K | 288.15 K | 293.15 K | 298.15 K | 303.15 K | 308.15 K | 313.15 K | 318.15 K | 323.15 K
x2 = 0.5001 | 0.119 | 0.145 | 0.171 | 0.198 | 0.236 | 0.281 | 0.337 | 0.424 | 0.513
x2 = 0.7273 | 0.219 | 0.264 | 0.307 | 0.36 | 0.423 | 0.498 | 0.61 | 0.721 | 0.868
x2 = 0.8572 | 0.382 | 0.44 | 0.504 | 0.585 | 0.675 | 0.811 | 0.97 | 1.08 | 1.3
x2 = 0.9412 | 0.615 | 0.702 | 0.795 | 0.91 | 1.05 | 1.22 | 1.45 | 1.74 | 1.93
